Experimental data from US12611406B2, “Oxopiperazine derivatives for the treatment of cancer” (Inthera Bioscience AG, priority 2020, dated 2026).
Read-outs that look alike come from different tables or passages of the source.

Assays:
[1] = Metabolic stability in intestinal microsomes; format: in vitro ADME; conditions: monkey compared to human
Procedure: In vitro testing also supports the use of mouse, Beagle dog, and cynomolgus monkey models to assay dosing and effectiveness of Compound 1. […] The metabolic profiles of hepatocytes from mouse, dog, and monkey that were cultured with Compound 1 were assessed. Similarly, the metabolic stability of Compound 1 was assayed in vitro using intestinal microsomes from mouse, rat, dog, monkey, and humans.

[2] = 14-day daily oral repeated-dose DRF study in Beagle dogs (citrate salt); format: in vivo; conditions: for Cmax / Tmax / half-life: both sexes, Beagle, dog, plasma, po
Procedure: The objective of this dose-range-finding study was to select the dose levels for a potential subsequent toxicity study of Compound 1 by oral administration to Beagle dogs.
Compound 1 (citrate salt) administration in this study was intended once daily for up to 14 consecutive days by oral gavage to groups of naïve Beagle dogs (n=1/sex/group) at dose levels of 0.1, 0.3, 1, 3, 6, or 12 mg Compound 1 per kg bodyweight and day in 0.5% methylcellulose by using a staggered approach. The actual dose levels and durations of dosing were flexibly adapted according to PK and signs of tolerability. For TK evaluation blood samples were collected from each dog on Days 1 and 14 at pre-dose, 1, 2, 4, 8, 12, and 24 hours post-dose.

NCI-H69 = assay: γH2A.X Western blot (DNA damage biomarker); format: cell-based; conditions: 20 or 200 nM, 24 h
Procedure: (§1) Cell cycle phase distribution in control (C) cells or cells treated at 20 or 200 nM Compound 1 for 24 hours (24 h) determined by fluorescence activated cell sorting (FACS) analysis, and detection of histone H2A variant H2A.X phosphorylation (γH2A.X, also referred to herein as gamma H2A.X or γH2A.X) by Western blot as DNA damage biomarker.
(§2) The observed accumulation of DNA damage upon tumor cell exposure to Compound 1, measured as an increase of the DNA damage biomarker γH2A.X (FIG. 3A), is in line with reports of p300/CBP being involved in DNA replication and DNA damage repair (DDR). […] Among these DDR proteins are ATR (ataxia telangiectasia and Rad3-related), which controls crucial cell cycle and repair checkpoints, but also nibrin (NBS1), and poly(ADP-ribose) polymerase 1 (PARP-1).
(§3) In FIG. 3A, protein amounts were normalized using total protein load with ImageLab 6.0 Software (BioRad).

DU-145 = assay: γH2A.X Western blot (DNA damage biomarker); format: cell-based; conditions: 20 or 200 nM, 24 h
Procedure: as §1, §2, §3

NCI-H82 = assay: γH2A.X Western blot (DNA damage biomarker); format: cell-based; conditions: 20 or 200 nM, 24 h
Procedure: as §1, §2, §3

[3] = Single dose oral gavage or intravenous PK in female cynomolgus monkeys, plasma; format: in vivo; conditions: for clearance / Vd / AUC(0-inf) / AUC(0-t) / Cmax / Tmax / half-life: female, cynomolgus monkey, plasma; for clearance: read-out: cleared (Cl), mean rate (converted); for Vd: read-out: mean volume of distribution (Vz)
Procedure: The objective of the study was to determine the PK profile of Compound 1 following a single oral gavage or intravenous injection administration on 5 different occasions to female cynomolgus monkeys.
Compound 1, was administered as consecutive single doses on 5 occasions, separated by a washout period, by either oral gavage (4 and 12 mg/kg, Days 1 and 8) or by slow bolus intravenous (IV) injection (0.2 and 0.6 mg/kg, Days 15 and 22) to a group of female monkeys. In a subset of dosing the influence of grapefruit juice was evaluated (Day 34). Each single dose (Days 1, 8, 15, 22, and 34) was separated by a 7-day washout period. Blood samples were collected on Days 1, 8, 15, 22 and 34 at selected time points, i.e., 15 min, 30 min, as well as 1, 2, 4, 6, 8, and 24 hours relative to treatment for analysis of the concentration of Compound 1 in plasma and subsequent calculation of PK parameters. Additional parameters monitored included mortality, clinical observations and body weight.

[4] = Plasma protein binding, equilibrium dialysis; format: in vitro ADME; conditions: 37° C, buffer pH 7.4, read-out: Fraction unbound (Fu), Mean
Procedure: Protein binding of Compound 1 to the plasma from several species, i.e., human, cynomolgus monkey, dog, rat, and mouse was investigated in vitro by incubation in plasma and determination of unbound fraction of Compound 1 using equilibrium dialysis. Compound 1 was incubated in 100% species-specific plasma and added to one side of the membrane in an equilibrium dialysis system while buffer (pH 7.4) is added to the other side. The system was allowed to reach equilibrium at 37° C. Compound concentration on both sides of the membrane is measured by liquid chromatography—tandem mass spectroscopy (LC-MS/MS).

**Q.** For `CC(C)C[C@@H]1NCCN([C@@H](CC(C)C)C(=O)N2CCC3(C[C@@H]2C)OCC(CN2CCCC2)CO3)C1=O` (stereo partly drawn) [Compound 1, (S)-3-isobutyl-1-((S)-4-methyl-1-((S)-8-methyl-3-(pyrrolidin-1-ylmethyl)-1,5-dioxa-9-azaspiro[5.5]undecan-9-yl)-1-oxopentan-2-yl)piperazin-2-one], which “stability in intestinal microsomes” value [1] is on record?
**A.** lower stability

**Q.** What about the “accumulation of drug exposure (Day 1 versus Day 14)” value ([2]; 0.1 mg/kg/day) of the same molecule?
**A.** no accumulation with time

**Q.** And the “Total AUC(o-inf)” value ([2]; 0.1 mg/kg/day, Day 1)?
**A.** 5.6 ng·h/mL

**Q.** And the “accumulation of drug exposure (Day 1 versus Day 14)” value ([2]; 0.3 mg/kg/day)?
**A.** slight increase over time

**Q.** What about the “Total AUC(o-inf)” value ([2]; 0.3 mg/kg/day, Day 1) of the same molecule?
**A.** 13.8 ng·h/mL

**Q.** What about the “Total AUC(o-inf)” value ([2]; 1 mg/kg/day, Day 1) of the same molecule?
**A.** 63.8 ng·h/mL

**Q.** What about the “Total AUC(o-inf)” value ([2]; 3 mg/kg/day, Day 1) of the same molecule?
**A.** 171.6 ng·h/mL

**Q.** What about the “Total AUC(o-inf)” value ([2]; 6 mg/kg/day, Day 1) of the same molecule?
**A.** 734.8 ng·h/mL

**Q.** What about the “Total AUC(o-inf)” value ([2]; 12 mg/kg/day, Day 1) of the same molecule?
**A.** 936.4 ng·h/mL

**Q.** What about the Cmax ([2]; 0.1 mg/kg/day, Day 1, read-out: mean Cmax plasma levels) of the same molecule?
**A.** 0.6 ng/mL

**Q.** And the Cmax ([2]; 0.1 mg/kg/day, Day 14, read-out: group mean Cmax plasma levels)?
**A.** 0.4 ng/mL

**Q.** And the Cmax ([2]; 0.3 mg/kg/day, Day 1, read-out: mean Cmax plasma levels)?
**A.** 2.3 ng/mL

**Q.** What about the Cmax ([2]; 0.3 mg/kg/day, Day 14, read-out: group mean Cmax plasma levels) of the same molecule?
**A.** 3.8 ng/mL

**Q.** And the Cmax ([2]; 1 mg/kg/day, Day 1, read-out: mean Cmax plasma levels)?
**A.** 8.6 ng/mL

**Q.** What about the Cmax ([2]; 3 mg/kg/day, Day 1, read-out: mean Cmax plasma levels) of the same molecule?
**A.** 23.8 ng/mL

**Q.** And the Cmax ([2]; 6 mg/kg/day, Day 1, read-out: mean Cmax plasma levels)?
**A.** 114 ng/mL

**Q.** And the Cmax ([2]; 12 mg/kg/day, Day 1, read-out: mean Cmax plasma levels)?
**A.** 182 ng/mL

**Q.** And the Tmax ([2]; 0.1 and 0.3 mg/kg/day, Day 14)?
**A.** 1 h

**Q.** And the half-life ([2]; 0.1 and 0.3 mg/kg/day, Day 14, read-out: terminal elimination half-lives)?
**A.** 4.7 to 5.5 h

**Q.** And the Tmax ([2]; all doses, Day 1)?
**A.** 1 to 2 h

**Q.** And the half-life ([2]; all doses, Day 1, read-out: elimination half-life)?
**A.** 3.4 to 6.2 h

**Q.** What about the tolerability ([2]; daily oral 0.1 and 0.3 mg/kg/day for 14 days and 1 mg/kg/day for 6 days) of the same molecule?
**A.** well-tolerated

**Q.** And the tolerability ([2]; daily oral 3, 6, and 12 mg/kg/day for 14 days)?
**A.** not well-tolerated

**Q.** And the “DNA damage marker γH2A.X” value (NCI-H69)?
**A.** accumulation of the DNA damage marker γH2A.X

**Q.** What about the “DNA damage marker γH2A.X” value (DU-145) of the same molecule?
**A.** accumulation of the DNA damage marker γH2A.X

**Q.** And the “DNA damage marker γH2A.X” value (NCI-H82)?
**A.** accumulation of the DNA damage marker γH2A.X

**Q.** What about the clearance ([3]; Day 15 (IV 0.2 mg/kg)) of the same molecule?
**A.** 43.2 mL/min/kg

**Q.** What about the Vd ([3]; Day 15 (IV 0.2 mg/kg)) of the same molecule?
**A.** 17.4 ± 2.2 L/kg

**Q.** And the clearance ([3]; Day 22 (IV 0.6 mg/kg))?
**A.** 41 mL/min/kg

**Q.** What about the Vd ([3]; Day 22 (IV 0.6 mg/kg)) of the same molecule?
**A.** 16.9 ± 1.91 L/kg

**Q.** And the AUC(0-inf) ([3]; IV 0.2 mg/kg)?
**A.** 77.4 ng·h/mL

**Q.** What about the AUC(0-t) ([3]; IV 0.2 mg/kg) of the same molecule?
**A.** 76.2 ng·h/mL

**Q.** And the Cmax ([3]; IV 0.2 mg/kg)?
**A.** 47.6 ng/mL

**Q.** And the Tmax ([3]; IV 0.2 mg/kg)?
**A.** 0.08 h

**Q.** And the half-life ([3]; IV 0.2 mg/kg)?
**A.** 4.64 h

**Q.** And the AUC(0-inf) ([3]; IV 0.6 mg/kg)?
**A.** 244 ng·h/mL

**Q.** What about the AUC(0-t) ([3]; IV 0.6 mg/kg) of the same molecule?
**A.** 240 ng·h/mL

**Q.** And the Cmax ([3]; IV 0.6 mg/kg)?
**A.** 162 ng/mL

**Q.** And the Tmax ([3]; IV 0.6 mg/kg)?
**A.** 0.08 h

**Q.** What about the half-life ([3]; IV 0.6 mg/kg) of the same molecule?
**A.** 4.74 h

**Q.** What about the AUC(0-inf) ([3]; po 4 mg/kg) of the same molecule?
**A.** 17.3 ng·h/mL

**Q.** What about the AUC(0-t) ([3]; po 4 mg/kg) of the same molecule?
**A.** 16.9 ng·h/mL

**Q.** What about the Cmax ([3]; po 4 mg/kg) of the same molecule?
**A.** 5.52 ng/mL

**Q.** And the Tmax ([3]; po 4 mg/kg)?
**A.** 0.5 h

**Q.** And the half-life ([3]; po 4 mg/kg)?
**A.** 4.7 h

**Q.** What about the AUC(0-inf) ([3]; po 12 mg/kg) of the same molecule?
**A.** 133 ng·h/mL

**Q.** What about the AUC(0-t) ([3]; po 12 mg/kg) of the same molecule?
**A.** 130 ng·h/mL

**Q.** What about the Cmax ([3]; po 12 mg/kg) of the same molecule?
**A.** 53.6 ng/mL

**Q.** And the Tmax ([3]; po 12 mg/kg)?
**A.** 0.83 h

**Q.** And the half-life ([3]; po 12 mg/kg)?
**A.** 5.46 h

**Q.** What about the clinical signs ([3]; intravenous doses up to 0.6 mg/kg) of the same molecule?
**A.** decrease in appetite

**Q.** What about the clinical signs ([3]; single oral doses up to 12 mg/kg) of the same molecule?
**A.** did not result in any adverse clinical signs

**Q.** What about the “Cmax increase with grapefruit juice prior to dosing” value ([3]; vs animals without grapefruit juice, Day 34) of the same molecule?
**A.** 2 fold

**Q.** What about the fraction unbound ([4]; dog plasma) of the same molecule?
**A.** 0.619

**Q.** What about the fraction unbound ([4]; human plasma) of the same molecule?
**A.** 0.547

**Q.** What about the fraction unbound ([4]; mouse plasma) of the same molecule?
**A.** 0.574

**Q.** And the fraction unbound ([4]; rat plasma)?
**A.** 0.528
